Results on three compounds are retold here after US20190328763A1, “A LIPID NANOPARTICLE FOR CARRYING ANTISENSE OLIGONUCLEOTIDES INHIBITING BCL-2 AND METHOD FOR PREPARING THE SAME” (NANJING LUYE PHARMACEUTICAL CO., LTD., priority 2016, published 2019).

Like-named read-outs stand apart in the source and are kept apart here. d = 2'-deoxy (DNA); m = 2'-O-methyl

Assay type in all cases: cell-based
For data set [1], the system named is bcl-2 messenger RNA. The data set can be described thus: Gene level (Bcl-2) G3139 regulation experiment, Real-Time-PCR, KB cancer cells. To be noted: for Ratio (bcl-2/β-actin): 1 μM G3139, 4 h incubation then 48 h culture, control group 100%. The protocol:
(§1) (1) We will place cancer cells, such as A549 cells, KB cells, and LNCaP prostate cancer cells in 6-well plates and make the cells grow in an RPMI1640 culture solution containing 10% fetal calf serum to allow the cells to grow overnight to achieve a plating rate of 80%.
(§2) (3) After incubation in an environment of 37 degrees and 5% CO2 for 4 h, the cells will be transferred to a fresh culture solution and the culture will last for 48 h. Cells were collected, lysed, and extracted RNA according to standard methods.
(§3) (4) We will analyze the levels of bcl-2 messenger RNA in each group with the Real-Time-PCR technology, and we can finally quantify the expression of bcl-2 after treatment in each group according to the standard methods of reagent suppliers.
By designing different sample groups, we regulate the levels of bcl-2 in KB cells.

In data set [2] the test system is bcl-2 messenger RNA. Briefly: Gene level (Bcl-2) G3139 regulation experiment, Real-Time-PCR, A549 lung cancer cells. Conditions: for Ratio (bcl-2/β-actin): 1 μM G3139, 4 h incubation then 48 h culture, control group 100%. The protocol:
as §1, §2, §3

Data set [3] concerns bcl-2 messenger RNA. The data set can be described thus: Gene level (Bcl-2) G3139 regulation experiment, Real-Time-PCR, LNCaP prostate cancer cells. Conditions: for Ratio (bcl-2/β-actin): 1 μM G3139, 4 h incubation then 48 h culture, control group 100%. On the procedure:
as §1, §2, §3

Another data set relates to A549 cells. Briefly: A549 lung cancer cytotoxicity test (MTS). Conditions: Homo sapiens, paclitaxel 1 nmol/L-100 μmol/L, antisense oligonucleotide fixed 10 μmol/L. The protocol:
(1) We placed A549 cells in 96-well plates, and made the cells grow in an RPMI1640 culture solution containing 10% fetal calf serum to allow the cells to grow overnight to achieve a plating rate of 60-70%.
(2) A toxicity test of multiple paclitaxel (PTX) concentration gradients (1 nmol/L-100 μmol/L) and antisense oligonucleotide concentrations (10 μmol/L) in each group was conducted with each concentration group on the second day, and each concentration group was incubated in a 37 degree and 5% CO2 environment.
(3) 20 ul of MTS reagent (a novel tetrazole compound) was added at different time points 24 h, 48 h, and 72 h, and the detection was performed at a wavelength of 490 nm and the results were as shown in the following table: […]

“5′-TCT CCC AGC GTG CGC CAT-3′ (antisense TCTCCCAGCGTGCGCCAT; DNA, all phosphorothioate, methylation of C not given here) [free G3139]”: the “Ratio (bcl-2/β-actin)” value is recorded as 95.31% in the data set with bcl-2 messenger RNA [1], 88.75% with bcl-2 messenger RNA [2] and 93.15% with bcl-2 messenger RNA [3].

Take “5′-UCU CCC AGC GTG CGC CAU-3′ (antisense UCUCCCAGCGTGCGCCAU; sugars from the 5' end m3 d12 m3, all phosphorothioate, methylation of C not given here) [free 2′-O-Me modified G3139]”: the figures for the “gene-level down-regulation of bcl-2” value with bcl-2 messenger RNA [1] (1 μM G3139), with bcl-2 messenger RNA [2] (1 μM G3139) and in the data set on bcl-2 messenger RNA [3] (1 μM G3139) were 10.96%, 6.71% and 5.11%, respectively. Besides, the “Ratio (bcl-2/β-actin)” value came out at 89.04% with bcl-2 messenger RNA [1], 93.29% in the data set with bcl-2 messenger RNA [2] and 94.89% in the data set with bcl-2 messenger RNA [3].

As to `CC(=O)O[C@H]1C(=O)[C@@]2(C)[C@H]([C@H](OC(=O)c3ccccc3)[C@]3(O)C[C@H](OC(=O)[C@H](O)[C@@H](NC(=O)c4ccccc4)c4ccccc4)C(C)=C1C3(C)C)[C@]1(OC(C)=O)CO[C@@H]1C[C@@H]2O` [Paclitaxel (PTX) alone, Paclitaxel], the IC50 worked out at 75.6 nM with A549 cells (24 h, read-out: IC50 after 24 h); 28.5 nM with A549 cells (48 h, read-out: IC50 after 48 h); 17.9 nM in the data set with A549 cells (72 h, read-out: IC50 after 72 h).
